From patent US9637483B2, “Heterocyclic compound” (TAKEDA PHARMACEUTICAL COMPANY LIMITED, priority 2013, dated 2017)

How the values were obtained:
Type in all cases: biochemical
[1] = target: T1, JAK3 (Homo sapiens, UniProt P52333); assay: JAK3 enzyme inhibition test (LANCE method); settings: 1 μM test compound; for inhibition at 1 µM: read-out: JAK3 enzyme inhibitory activity (%, 1 μM)
T1 construct: purchased Invitrogen
T1 sequence (P52333 1-1124): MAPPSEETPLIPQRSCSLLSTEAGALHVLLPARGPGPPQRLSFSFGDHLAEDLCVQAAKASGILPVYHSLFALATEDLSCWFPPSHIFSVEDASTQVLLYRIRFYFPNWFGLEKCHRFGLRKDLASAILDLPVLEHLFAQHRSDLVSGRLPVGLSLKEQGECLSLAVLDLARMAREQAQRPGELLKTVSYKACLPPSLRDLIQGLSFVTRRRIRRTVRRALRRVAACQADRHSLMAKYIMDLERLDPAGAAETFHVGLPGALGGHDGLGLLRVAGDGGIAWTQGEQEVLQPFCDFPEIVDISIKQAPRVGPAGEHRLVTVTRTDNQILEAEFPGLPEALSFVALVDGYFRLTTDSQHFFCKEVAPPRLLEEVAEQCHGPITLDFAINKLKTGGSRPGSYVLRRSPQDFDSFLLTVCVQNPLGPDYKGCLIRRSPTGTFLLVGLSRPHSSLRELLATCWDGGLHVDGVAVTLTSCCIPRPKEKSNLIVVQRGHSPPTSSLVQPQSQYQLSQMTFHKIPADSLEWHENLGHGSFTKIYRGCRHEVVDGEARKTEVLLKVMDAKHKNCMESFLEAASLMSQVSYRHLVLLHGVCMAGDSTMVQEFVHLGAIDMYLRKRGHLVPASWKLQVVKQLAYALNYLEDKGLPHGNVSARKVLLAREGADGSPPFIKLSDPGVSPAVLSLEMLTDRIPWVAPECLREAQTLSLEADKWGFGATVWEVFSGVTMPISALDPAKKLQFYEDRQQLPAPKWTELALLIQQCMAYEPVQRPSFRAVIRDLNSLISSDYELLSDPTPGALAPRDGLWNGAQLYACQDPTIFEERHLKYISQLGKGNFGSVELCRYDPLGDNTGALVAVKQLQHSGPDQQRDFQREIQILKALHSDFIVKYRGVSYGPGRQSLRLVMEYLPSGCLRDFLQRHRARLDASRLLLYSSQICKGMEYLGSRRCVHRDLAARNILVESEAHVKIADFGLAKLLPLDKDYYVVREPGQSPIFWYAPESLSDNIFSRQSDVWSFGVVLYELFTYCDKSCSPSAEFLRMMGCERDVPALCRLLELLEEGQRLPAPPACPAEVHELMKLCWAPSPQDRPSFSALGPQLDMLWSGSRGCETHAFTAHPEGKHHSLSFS
Method in brief: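 TR-FRET (LANCE) read: 1 h room-temperature reaction, EDTA quench, Eu-anti-phosphotyrosine antibody, emission 665 nm after 340 nm excitation. Added solutions held 12 ng/mL JAK3, 300 nM ULight-JAK1 substrate and 15 μM ATP (pH 7.5 HEPES). Activity expressed against no-enzyme wells defined as full inhibition.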

[2] = target: T2, JAK1 (Homo sapiens, UniProt P23458); assay: JAK1 enzyme inhibition test (LANCE method); settings: 1 μM test compound; for inhibition at 1 µM: read-out: JAK1 enzyme inhibitory activity (%, 1 μM)
T2 construct: purchased Invitrogen
T2 sequence (P23458 whole entry): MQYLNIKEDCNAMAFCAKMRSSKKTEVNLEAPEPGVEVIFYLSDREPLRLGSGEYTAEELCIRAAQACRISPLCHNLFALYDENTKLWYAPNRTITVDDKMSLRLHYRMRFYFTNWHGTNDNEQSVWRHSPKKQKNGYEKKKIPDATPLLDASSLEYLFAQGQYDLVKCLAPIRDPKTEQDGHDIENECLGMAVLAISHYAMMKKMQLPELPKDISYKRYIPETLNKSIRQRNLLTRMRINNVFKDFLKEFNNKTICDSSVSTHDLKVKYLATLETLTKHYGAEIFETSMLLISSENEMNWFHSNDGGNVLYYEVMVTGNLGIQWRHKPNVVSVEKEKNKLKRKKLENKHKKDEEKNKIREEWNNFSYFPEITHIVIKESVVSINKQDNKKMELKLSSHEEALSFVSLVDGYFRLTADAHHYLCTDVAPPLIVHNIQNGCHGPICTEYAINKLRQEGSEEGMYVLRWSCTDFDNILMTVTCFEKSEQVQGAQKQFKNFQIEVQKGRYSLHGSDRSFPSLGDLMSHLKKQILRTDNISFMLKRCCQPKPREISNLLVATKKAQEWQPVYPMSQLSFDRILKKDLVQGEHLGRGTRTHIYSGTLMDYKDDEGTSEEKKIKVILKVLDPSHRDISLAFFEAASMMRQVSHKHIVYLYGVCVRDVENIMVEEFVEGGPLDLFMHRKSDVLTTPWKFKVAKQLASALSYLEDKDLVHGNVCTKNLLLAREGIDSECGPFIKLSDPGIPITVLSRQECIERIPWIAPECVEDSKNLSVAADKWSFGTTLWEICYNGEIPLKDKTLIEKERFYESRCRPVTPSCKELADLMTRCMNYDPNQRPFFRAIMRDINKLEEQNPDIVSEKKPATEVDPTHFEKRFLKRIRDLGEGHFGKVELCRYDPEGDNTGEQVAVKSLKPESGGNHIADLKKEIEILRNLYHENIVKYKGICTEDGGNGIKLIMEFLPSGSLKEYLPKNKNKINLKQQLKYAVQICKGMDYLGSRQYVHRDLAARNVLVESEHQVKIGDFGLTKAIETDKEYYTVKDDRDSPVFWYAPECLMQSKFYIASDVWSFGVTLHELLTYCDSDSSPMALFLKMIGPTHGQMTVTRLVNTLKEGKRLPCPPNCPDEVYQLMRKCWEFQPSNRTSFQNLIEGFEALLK
Method in brief: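 Inhibition expressed against no-enzyme wells (100% inhibition), from time-resolved fluorescence at 665 nm after Eu-anti-phosphotyrosine antibody/EDTA detection. Kinase reaction ran 1 h at room temperature, pH 7.5 HEPES buffer, ULight-JAK1 substrate and ATP diluted to 300 nM and 150 μM before addition.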

[3] = target: T3, JAK2 (Homo sapiens, UniProt O60674); assay: JAK2 enzyme inhibition test (LANCE method); settings: 1 μM test compound; for inhibition at 1 µM: read-out: JAK2 enzyme inhibitory activity (%, 1 μM)
T3 construct: purchased Invitrogen
T3 sequence (O60674 whole entry): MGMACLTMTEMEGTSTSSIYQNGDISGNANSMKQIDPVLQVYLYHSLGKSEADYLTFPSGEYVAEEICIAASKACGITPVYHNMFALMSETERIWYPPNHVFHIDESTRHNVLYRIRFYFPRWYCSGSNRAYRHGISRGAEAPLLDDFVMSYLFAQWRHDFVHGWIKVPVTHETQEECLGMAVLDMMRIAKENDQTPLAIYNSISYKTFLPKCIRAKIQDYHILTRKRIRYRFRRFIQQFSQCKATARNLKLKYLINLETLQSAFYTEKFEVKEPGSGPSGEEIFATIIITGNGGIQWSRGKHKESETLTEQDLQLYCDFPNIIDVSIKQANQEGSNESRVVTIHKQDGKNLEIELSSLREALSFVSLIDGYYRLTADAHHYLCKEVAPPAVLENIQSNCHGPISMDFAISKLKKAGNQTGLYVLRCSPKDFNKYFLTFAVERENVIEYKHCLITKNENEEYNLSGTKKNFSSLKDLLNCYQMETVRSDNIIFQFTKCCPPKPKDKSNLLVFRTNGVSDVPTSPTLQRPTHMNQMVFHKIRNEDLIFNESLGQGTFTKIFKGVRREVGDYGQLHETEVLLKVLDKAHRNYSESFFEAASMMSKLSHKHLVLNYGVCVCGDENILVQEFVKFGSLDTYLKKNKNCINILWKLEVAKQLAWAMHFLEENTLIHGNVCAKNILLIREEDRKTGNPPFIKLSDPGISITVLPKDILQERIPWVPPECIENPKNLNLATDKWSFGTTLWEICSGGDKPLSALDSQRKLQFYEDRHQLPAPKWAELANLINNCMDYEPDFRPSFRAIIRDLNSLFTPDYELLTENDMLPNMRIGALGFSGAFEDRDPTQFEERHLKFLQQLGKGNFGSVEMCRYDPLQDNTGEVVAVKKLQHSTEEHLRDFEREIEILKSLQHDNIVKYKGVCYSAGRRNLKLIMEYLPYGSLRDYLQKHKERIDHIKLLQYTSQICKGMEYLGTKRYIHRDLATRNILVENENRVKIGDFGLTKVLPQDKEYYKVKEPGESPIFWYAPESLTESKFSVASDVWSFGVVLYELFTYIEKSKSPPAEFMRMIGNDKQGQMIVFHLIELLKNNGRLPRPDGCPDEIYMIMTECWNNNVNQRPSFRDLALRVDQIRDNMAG
Method in brief: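 TR-FRET (LANCE) read-out, ex 340/em 665 nm with 100 μs delay, after 1 hr room-temperature detection with europium anti-phosphotyrosine antibody and 20 mM EDTA. The preceding 1 hr kinase reaction combined JAK2, ULight-JAK1 substrate and ATP, added as 6 ng/mL, 300 nM and 45 μM solutions; enzyme-free wells defined 100% inhibition.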

[4] = target: T4, TYK2 (Homo sapiens, UniProt P29597); assay: TYK2 enzyme inhibition test (LANCE method); settings: 1 μM test compound; for inhibition at 1 µM: read-out: TYK2 enzyme inhibitory activity (%, 1 μM)
T4 construct: purchased Invitrogen
T4 sequence (P29597 whole entry): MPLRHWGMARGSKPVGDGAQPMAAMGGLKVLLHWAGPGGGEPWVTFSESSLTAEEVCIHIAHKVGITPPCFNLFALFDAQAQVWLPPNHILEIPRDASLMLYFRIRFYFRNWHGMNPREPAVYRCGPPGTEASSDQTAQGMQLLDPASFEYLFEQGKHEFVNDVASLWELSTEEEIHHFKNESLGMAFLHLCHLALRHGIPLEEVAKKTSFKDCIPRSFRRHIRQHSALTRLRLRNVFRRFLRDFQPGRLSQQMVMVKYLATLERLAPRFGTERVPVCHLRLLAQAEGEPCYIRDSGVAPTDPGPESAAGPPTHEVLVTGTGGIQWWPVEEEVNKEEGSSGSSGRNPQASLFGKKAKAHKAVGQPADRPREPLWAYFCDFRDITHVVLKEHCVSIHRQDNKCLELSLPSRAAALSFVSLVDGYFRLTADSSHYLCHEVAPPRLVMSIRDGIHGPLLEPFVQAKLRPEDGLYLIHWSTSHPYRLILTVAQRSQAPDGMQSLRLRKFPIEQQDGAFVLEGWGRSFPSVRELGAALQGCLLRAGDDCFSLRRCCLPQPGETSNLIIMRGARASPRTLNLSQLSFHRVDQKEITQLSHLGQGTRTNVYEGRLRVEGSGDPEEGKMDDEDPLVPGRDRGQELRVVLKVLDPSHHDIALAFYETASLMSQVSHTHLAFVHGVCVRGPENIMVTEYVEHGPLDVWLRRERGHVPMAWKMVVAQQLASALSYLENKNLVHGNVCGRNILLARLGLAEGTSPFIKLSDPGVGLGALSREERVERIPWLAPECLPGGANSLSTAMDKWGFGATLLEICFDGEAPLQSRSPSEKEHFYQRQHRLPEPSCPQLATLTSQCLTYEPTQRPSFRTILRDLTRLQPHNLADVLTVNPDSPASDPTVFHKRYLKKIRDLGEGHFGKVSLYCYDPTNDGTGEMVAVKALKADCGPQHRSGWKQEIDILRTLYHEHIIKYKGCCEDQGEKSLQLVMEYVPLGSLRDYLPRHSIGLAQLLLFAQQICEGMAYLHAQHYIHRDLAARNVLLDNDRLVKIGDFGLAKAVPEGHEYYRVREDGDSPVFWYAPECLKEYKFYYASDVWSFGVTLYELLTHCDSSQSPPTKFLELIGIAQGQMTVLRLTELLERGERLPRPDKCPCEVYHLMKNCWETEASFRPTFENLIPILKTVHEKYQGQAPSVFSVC
Method in brief: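 TR-FRET (LANCE) readout: after 1 h room-temperature kinase reaction, EDTA plus 4 nM Eu-labelled anti-phosphotyrosine antibody added, signal at 665 nm (340 nm excitation). Reaction combined TYK2, ULight-JAK1 substrate and ATP, prepared at 375 ng/mL, 300 nM and 30 μM before addition, in pH 7.5 HEPES/MgCl2 buffer; enzyme-free wells define full inhibition.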

| SMILES | inhibition at 1 µM [1] [%] | inhibition at 1 µM [2] [%] | inhibition at 1 µM [3] [%] | inhibition at 1 µM [4] [%] | JAK1 enzyme inhibitory activity (%, 1 μM) [2] [%] | JAK3 enzyme inhibitory activity (%, 1 μM) [1] [%] | JAK2 enzyme inhibitory activity (%, 1 μM) [3] [%] | TYK2 enzyme inhibitory activity (%, 1 μM) [4] [%] |
| --- | --- | --- | --- | --- | --- | --- | --- | --- |
| Cn1nc(-c2cn(C(C3CC3)C3CC3)c(=O)c3c(N)n[nH]c23)cc1C1CCCCC1 [Example 148, 3-amino-7-(5-cyclohexyl-1-methyl-1H-pyrazol-3-yl)-5-(dicyclopropylmethyl)-1,5-dihydro-4H-pyrazolo[4,3-c]pyridin-4-one] | 104 | 101 | 101 | 110 | – | – | – | – |
| CN1CCN(c2cc(-c3cn(C(C4CC4)C4CC4)c(=O)c4c(N)n[nH]c34)nn2C)CC1 [Example 149, 3-amino-5-(dicyclopropylmethyl)-7-(1-methyl-5-(4-methylpiperazin-1-yl)-1H-pyrazol-3-yl)-1,5-dihydro-4H-pyrazolo[4,3-c]pyridin-4-one] | 101 | 100 | 99 | 106 | – | – | – | – |
| CN1CCCN(c2cc(-c3cn(C(C4CC4)C4CC4)c(=O)c4c(N)n[nH]c34)nn2C)CC1 [Example 150, 3-amino-5-(dicyclopropylmethyl)-7-(1-methyl-5-(4-methyl-1,4-diazepan-1-yl)-1H-pyrazol-3-yl)-1,5-dihydro-4H-pyrazolo[4,3-c]pyridin-4-one] | 101 | 98 | 100 | 102 | – | – | – | – |
| Cn1nc(-c2cn(C(C3CC3)C3CC3)c(=O)c3c(N)n[nH]c23)cc1N1C2CCC1COC2 [Example 151, 3-amino-5-(dicyclopropylmethyl)-7-(1-methyl-5-(3-oxa-8-azabicyclo[3.2.1]oct-8-yl)-1H-pyrazol-3-yl)-1,5-dihydro-4H-pyrazolo[4,3-c]pyridin-4-one] | 101 | 99 | 100 | 102 | – | – | – | – |
| CC1CCCCC1n1cc(-c2cc(N3CCOCC3)n(C)n2)c2[nH]nc(N)c2c1=O (stereo not drawn) [Example 152, 3-amino-5-(2-methylcyclohexyl)-7-(1-methyl-5-(morpholin-4-yl)-1H-pyrazol-3-yl)-1,5-dihydro-4H-pyrazolo[4,3-c]pyridin-4-one] | 101 | – | 101 | 102 | 100 | – | – | – |
| CC1CCCCC1n1cc(-c2cc(N3CCOCC3)n(C)n2)c2[nH]nc(N)c2c1=O (stereo not drawn) [Example 153, 3-amino-5-(2-methylcyclohexyl)-7-(1-methyl-5-(morpholin-4-yl)-1H-pyrazol-3-yl)-1,5-dihydro-4H-pyrazolo[4,3-c]pyridin-4-one] | – | – | – | – | 99 | 101 | 98 | 103 |
| CC1CCCCC1n1cc(-c2cc(N3CCOCC3)n(C)n2)c2[nH]nc(N)c2c1=O (stereo not drawn) [Example 154, 3-amino-5-(2-methylcyclohexyl)-7-(1-methyl-5-(morpholin-4-yl)-1H-pyrazol-3-yl)-1,5-dihydro-4H-pyrazolo[4,3-c]pyridin-4-one] | – | – | – | – | 97 | 100 | 98 | 102 |
| CC1CCCCC1n1cc(-c2cc(N3CCOCC3)n(C)n2)c2[nH]nc(N)c2c1=O (stereo not drawn) [Example 155, 3-amino-5-(2-methylcyclohexyl)-7-(1-methyl-5-(morpholin-4-yl)-1H-pyrazol-3-yl)-1,5-dihydro-4H-pyrazolo[4,3-c]pyridin-4-one] | – | – | – | – | 76 | 98 | 81 | 101 |
| CN(C)[C@@H]1CCN(c2cc(-c3cn(C(C4CC4)C4CC4)c(=O)c4c(N)n[nH]c34)nn2C)C1 [Example 156, 3-amino-5-(dicyclopropylmethyl)-7-(5-((3R)-3-(dimethylamino)pyrrolidin-1-yl)-1-methyl-1H-pyrazol-3-yl)-1,5-dihydro-4H-pyrazolo[4,3-c]pyridin-4-one] | 100 | 100 | 99 | 100 | – | – | – | – |
| Cn1nc(-c2cn(C(C3CC3)C3CC3)c(=O)c3c(N)n[nH]c23)cc1N1CCC[C@@H]1CO [Example 157, 3-amino-5-(dicyclopropylmethyl)-7-(5-((2R)-2-(hydroxymethyl)pyrrolidin-1-yl)-1-methyl-1H-pyrazol-3-yl)-1,5-dihydro-4H-pyrazolo[4,3-c]pyridin-4-one] | 100 | 99 | 99 | 101 | – | – | – | – |
| Cn1nc(-c2cn(C(C3CC3)C3CC3)c(=O)c3c(N)n[nH]c23)cc1N1CCC[C@@H]1CN1CCCC1 [Example 158, 3-amino-5-(dicyclopropylmethyl)-7-(1-methyl-5-((2R)-2-(pyrrolidin-1-ylmethyl)pyrrolidin-1-yl)-1H-pyrazol-3-yl)-1,5-dihydro-4H-pyrazolo[4,3-c]pyridin-4-one] | 100 | 92 | 99 | 101 | – | – | – | – |
| COC[C@H]1CCCN1c1cc(-c2cn(C(C3CC3)C3CC3)c(=O)c3c(N)n[nH]c23)nn1C [Example 159, 3-amino-5-(dicyclopropylmethyl)-7-(5-((2R)-2-(methoxymethyl)pyrrolidin-1-yl)-1-methyl-1H-pyrazol-3-yl)-1,5-dihydro-4H-pyrazolo[4,3-c]pyridin-4-one] | 100 | 99 | 99 | 100 | – | – | – | – |
| CN(C)[C@H]1CCN(c2cc(-c3cn(C(C4CC4)C4CC4)c(=O)c4c(N)n[nH]c34)nn2C)C1 [Example 160, 3-amino-5-(dicyclopropylmethyl)-7-(5-((3S)-3-(dimethylamino)pyrrolidin-1-yl)-1-methyl-1H-pyrazol-3-yl)-1,5-dihydro-4H-pyrazolo[4,3-c]pyridin-4-one] | 100 | 99 | 100 | 100 | – | – | – | – |
| Cn1nc(-c2cn(C(C3CC3)C3CC3)c(=O)c3c(N)n[nH]c23)cc1C1CC1 [Example 161, 3-amino-7-(5-cyclopropyl-1-methyl-1H-pyrazol-3-yl)-5-(dicyclopropylmethyl)-1,5-dihydro-4H-pyrazolo[4,3-c]pyridin-4-one] | 100 | 100 | 99 | 100 | – | – | – | – |
| Cn1nc(-c2cn(C(C3CC3)C3CC3)c(=O)c3c(N)n[nH]c23)cc1N1CCN2CCC[C@H]2C1 [Example 162, 3-amino-5-(dicyclopropylmethyl)-7-(5-((8aS)-hexahydropyrrolo[1,2-a]pyrazin-2(1H)-yl)-1-methyl-1H-pyrazol-3-yl)-1,5-dihydro-4H-pyrazolo[4,3-c]pyridin-4-one] | 100 | 99 | 100 | 101 | – | – | – | – |
